Patent US20170049717A1, “DRUG FOR TREATMENT OF TINNITUS PATIENTS” (KYORIN PHARMACEUTICAL CO., LTD., priority 2014, published 2017)

What was measured:
[1] = target: α9/α10 nicotinic acetylcholine receptors (Rattus norvegicus, UniProt P43144+Q9JLB5); conditions: Plazas, et al., Eur J Pharmacol., 2007; cited from earlier work
[2] = test system: patients with tinnitus associated with sudden hearing loss; test: 24-week, placebo controlled, randomized, double-blind comparative trial; TRSw score; format: in vivo, human; conditions: for Change in TRSw score, Neramexane: least mean squares (MMRM)
Experimental: Film coated tablets comprising 12.5 mg neramexane mesylate were produced by the method disclosed in International Patent Publication No. WO2009/033649.
The efficacy of neramexane mesylate on patients with tinnitus associated with sudden hearing loss was evaluated in a 24-week, placebo controlled, randomized, double-blind comparative trial.
The film coated tablets comprising 12.5 mg neramexane mesylate or placebo tablets were administered for 24 weeks to patients having tinnitus. The dosage was started from 12.5 mg/day, and gradually increasing the dose to 50 mg/day over 4 weeks, and maintaining the same dose thereafter.
The therapeutic effect of neramexane mesylate for the patients was evaluated using the TRSw score. Also, the state of anxiety or depression of the patients was evaluated using the HADS score. Statistical analysis was performed using a mixed-effect model repeated measure (MMRM) taking into consideration the covariance structure of error for the patient, with the change in TRSw score from before administration of neramexane mesylate tablets or placebo tablets (0 weeks) to each evaluation time point as the response variable, and with the drug-administered group, evaluation time point, interaction between drug-administered group and evaluation time point, 0-week TRSw score, gender and body weight as […]. The numerical values in the table represent least mean squares for the change in TRSw score at 16 weeks after administration and 24 weeks after administration. A change in score of less than 0 indicates a higher therapeutic effect.

5-HT3 receptors = target: T1, 5-HT3 receptors (Homo sapiens, UniProt P46098); conditions: cited from earlier work
T1 sequence (P46098 24-478): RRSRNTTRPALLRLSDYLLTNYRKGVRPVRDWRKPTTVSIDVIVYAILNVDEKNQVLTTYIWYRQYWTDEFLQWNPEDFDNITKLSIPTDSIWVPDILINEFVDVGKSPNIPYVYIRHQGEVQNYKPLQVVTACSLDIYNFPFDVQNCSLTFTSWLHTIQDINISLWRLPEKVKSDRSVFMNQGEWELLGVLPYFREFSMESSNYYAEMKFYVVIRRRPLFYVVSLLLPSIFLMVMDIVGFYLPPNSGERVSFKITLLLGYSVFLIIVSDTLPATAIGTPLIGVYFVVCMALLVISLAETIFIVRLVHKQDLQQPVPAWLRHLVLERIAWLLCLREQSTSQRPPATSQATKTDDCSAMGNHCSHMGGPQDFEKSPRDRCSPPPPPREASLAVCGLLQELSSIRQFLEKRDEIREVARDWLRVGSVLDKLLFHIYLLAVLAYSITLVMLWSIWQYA

[3] = sudden hearing loss, together with HADS (anxiety) of >10
[4] = sudden hearing loss, together with HADS (depression) of >10
[5] = sudden hearing loss, together with morbidity period of 48 months or longer
[6] = sudden hearing loss, together with suffering period of less than 6 months

α9/α10 nicotinic acetylcholine receptors, sequence (P43144 26-479): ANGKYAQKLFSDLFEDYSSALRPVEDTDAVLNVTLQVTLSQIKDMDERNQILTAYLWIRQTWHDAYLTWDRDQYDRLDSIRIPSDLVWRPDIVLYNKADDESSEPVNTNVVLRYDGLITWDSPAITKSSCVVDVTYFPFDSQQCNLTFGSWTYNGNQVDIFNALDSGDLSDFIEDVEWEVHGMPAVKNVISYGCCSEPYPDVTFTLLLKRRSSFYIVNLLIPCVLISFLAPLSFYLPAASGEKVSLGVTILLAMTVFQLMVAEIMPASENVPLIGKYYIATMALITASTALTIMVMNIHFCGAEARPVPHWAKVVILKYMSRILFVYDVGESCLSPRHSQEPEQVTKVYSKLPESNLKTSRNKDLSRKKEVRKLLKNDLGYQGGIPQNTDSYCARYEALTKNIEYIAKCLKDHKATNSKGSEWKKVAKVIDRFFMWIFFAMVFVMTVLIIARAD
α9/α10 nicotinic acetylcholine receptors, sequence (Q9JLB5 25-447): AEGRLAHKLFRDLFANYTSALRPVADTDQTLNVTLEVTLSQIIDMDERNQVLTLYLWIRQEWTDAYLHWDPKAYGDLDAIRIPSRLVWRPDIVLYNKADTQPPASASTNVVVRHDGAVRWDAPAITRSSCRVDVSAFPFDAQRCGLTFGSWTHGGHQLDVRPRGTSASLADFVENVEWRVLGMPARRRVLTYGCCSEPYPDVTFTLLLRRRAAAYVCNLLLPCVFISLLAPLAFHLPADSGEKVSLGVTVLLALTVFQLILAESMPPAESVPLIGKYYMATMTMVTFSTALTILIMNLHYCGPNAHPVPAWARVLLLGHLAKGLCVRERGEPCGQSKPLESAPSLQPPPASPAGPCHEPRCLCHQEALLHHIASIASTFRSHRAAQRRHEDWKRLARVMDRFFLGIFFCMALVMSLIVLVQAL

CC1(C)CC(C)(C)CC(C)(N)C1 [Neramexane, 1-amino-1,3,3,5,5-pentamethylcyclohexane]
inhibiting activity on α9/α10 nicotinic acetylcholine receptors [1]: exhibits inhibiting activity | Change in TRSw score, Neramexane − placebo ([2]; Tinnitus associated with sudden hearing loss): −1.8 | therapeutic effect ([2]; group with a depression value of greater than 10 according to HADS): unexpectedly excellent therapeutic effect | therapeutic effect ([2]; group with a morbidity period of 48 months or longer): unexpectedly excellent therapeutic effect | therapeutic effect ([2]; group with a suffering period of shorter than 6 months): unexpectedly excellent therapeutic effect | therapeutic effect ([2]; group with an anxiety value of greater than 10 according to HADS): unexpectedly excellent therapeutic effect | Change in TRSw score, Neramexane ([2]; change from 0 weeks, up to 50 mg/day, Tinnitus associated with sudden hearing loss): −2.3 | Change in TRSw score, Neramexane [2, 3]: −2.4 | Change in TRSw score, Neramexane [2, 4]: −3.1 | Change in TRSw score, Neramexane [2, 5]: −4.0 | Change in TRSw score, Neramexane [2, 6]: −3.7 | therapeutic effect compared to placebo ([2]; patients affected by tinnitus associated with sudden hearing loss): clear therapeutic effect | Change in TRSw score, Neramexane − placebo [2, 3]: −3.7 | Change in TRSw score, Neramexane − placebo [2, 4]: −3.7 | Change in TRSw score, Neramexane − placebo [2, 5]: −4.2 | Change in TRSw score, Neramexane − placebo [2, 6]: −3.8 | inhibiting activity on 5-HT3 receptors (5-HT3 receptors): exhibits inhibiting activity
